From the NIST ThermoML archive (doi:10.1016/j.tca.2012.01.007)

Experiment: wn = mass fraction of the nth substance listed
Settings: 101 kPa, Liquid, Vibrating tube method

OCCNCCO [diethanolamine] + CCO
Settings | mass density [kg/m3]
278.14 K, w1 = 0.1 | 827.791
278.14 K, w1 = 1 | 1107.05
278.15 K, w1 = 0.1999 | 854.007
278.15 K, w1 = 0.3 | 881.862
278.15 K, w1 = 0.3999 | 910.002
278.15 K, w1 = 0.5001 | 939.811
278.15 K, w1 = 0.5998 | 970.814
278.15 K, w1 = 0.7002 | 1004.37
278.15 K, w1 = 0.8001 | 1037.46
278.15 K, w1 = 0.8417 | 1051.46
278.15 K, w1 = 0.8997 | 1071.67
283.14 K, w1 = 0.1 | 823.639
283.14 K, w1 = 0.1999 | 849.953
283.14 K, w1 = 0.3 | 877.917
283.14 K, w1 = 1 | 1103.88
283.15 K, w1 = 0.3999 | 906.254
283.15 K, w1 = 0.5001 | 936.053
283.15 K, w1 = 0.5998 | 967.135
283.15 K, w1 = 0.7002 | 1000.78
283.15 K, w1 = 0.8001 | 1034
283.15 K, w1 = 0.8417 | 1048.09
283.15 K, w1 = 0.8997 | 1068.38
293.14 K, w1 = 0.1 | 815.297
293.14 K, w1 = 0.1999 | 841.801
293.14 K, w1 = 0.3 | 869.969
293.14 K, w1 = 0.5998 | 959.776
293.14 K, w1 = 0.8997 | 1061.73
293.15 K, w1 = 0.3999 | 898.495
293.15 K, w1 = 0.5001 | 928.504
293.15 K, w1 = 0.7002 | 993.608
293.15 K, w1 = 0.8001 | 1027.03
293.15 K, w1 = 0.8417 | 1041.24
293.15 K, w1 = 1 | 1097.51
303.14 K, w1 = 0.1 | 806.876
303.14 K, w1 = 0.3 | 861.949
303.14 K, w1 = 1 | 1091.06
303.15 K, w1 = 0.1999 | 833.564
303.15 K, w1 = 0.3999 | 890.674
303.15 K, w1 = 0.5001 | 920.9
303.15 K, w1 = 0.5998 | 952.376
303.15 K, w1 = 0.7002 | 986.404
303.15 K, w1 = 0.8001 | 1020.01
303.15 K, w1 = 0.8417 | 1034.3
303.15 K, w1 = 0.8997 | 1054.97
313.14 K, w1 = 0.1 | 798.332
313.14 K, w1 = 0.3 | 853.824
313.14 K, w1 = 1 | 1084.49
313.15 K, w1 = 0.1999 | 825.235
313.15 K, w1 = 0.3999 | 882.762
313.15 K, w1 = 0.5001 | 913.212
313.15 K, w1 = 0.5998 | 944.908
313.15 K, w1 = 0.7002 | 979.15
313.15 K, w1 = 0.8001 | 1012.95
313.15 K, w1 = 0.8417 | 1027.32
313.15 K, w1 = 0.8997 | 1048.11
323.14 K, w1 = 0.1 | 789.624
323.14 K, w1 = 0.1999 | 816.75
323.14 K, w1 = 0.3 | 845.563
323.14 K, w1 = 0.7002 | 971.82
323.14 K, w1 = 1 | 1077.78
323.15 K, w1 = 0.3999 | 874.726
323.15 K, w1 = 0.5998 | 937.339
323.15 K, w1 = 0.8001 | 1005.75
323.15 K, w1 = 0.8417 | 1020.28
323.15 K, w1 = 0.8997 | 1041.21
323.16 K, w1 = 0.5001 | 905.4
333.14 K, w1 = 0.1 | 780.704
333.14 K, w1 = 0.1999 | 808.075
333.14 K, w1 = 0.3 | 837.129
333.14 K, w1 = 1 | 1071
333.15 K, w1 = 0.3999 | 866.54
333.15 K, w1 = 0.5001 | 897.474
333.15 K, w1 = 0.5998 | 929.643
333.15 K, w1 = 0.7002 | 964.37
333.15 K, w1 = 0.8001 | 998.264
333.15 K, w1 = 0.8417 | 1013.15
333.15 K, w1 = 0.8997 | 1034.23
343.14 K, w1 = 0.1 | 771.521
343.14 K, w1 = 0.1999 | 799.163
343.14 K, w1 = 0.3 | 828.477
343.14 K, w1 = 0.5001 | 889.372
343.14 K, w1 = 0.8997 | 1027.15
343.14 K, w1 = 1 | 1064.14
343.15 K, w1 = 0.3999 | 858.164
343.15 K, w1 = 0.5998 | 921.798
343.15 K, w1 = 0.7002 | 956.784
343.15 K, w1 = 0.8001 | 990.826
343.15 K, w1 = 0.8417 | 1005.84
348.14 K, w1 = 0.1 | 766.805
348.14 K, w1 = 0.1999 | 794.6
348.14 K, w1 = 0.3 | 824.049
348.14 K, w1 = 0.5998 | 917.813
348.14 K, w1 = 1 | 1060.68
348.15 K, w1 = 0.3999 | 853.893
348.15 K, w1 = 0.5001 | 885.244
348.15 K, w1 = 0.7002 | 952.934
348.15 K, w1 = 0.8001 | 987.083
348.15 K, w1 = 0.8417 | 1001.85
348.15 K, w1 = 0.8997 | 1023.57
